From ChEMBL document CHEMBL1201862, “PubChem BioAssay data set” (2004)
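All cell lines were grown in 96-well plates and treated with compound for 48 hours. GI50: concentration for 50% inhibition of growth.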 Calls of active or inactive are those of the source. No stated cut-off is given here; in the data, active = GI50 up to about 1.1 µM and inactive = higher.

Columns and labels:
Test in all cases: inhibition of tumour cell growth, NCI panel, 48 h
[1] = system: Malme-3M
[2] = system: HCT-116
[3] = system: UACC-257
[4] = system: CCRF-CEM
[5] = system: RPMI-8226
[6] = system: K562
[7] = system: SR
[8] = system: KM12
[9] = system: OVCAR-8
[10] = system: SNB-19
[11] = system: HOP-92
[12] = system: NCI-H226
[13] = system: OVCAR-5
[14] = system: SN12C
[15] = system: IGROV-1
[16] = system: RXF 393
[17] = system: SK-MEL-5

Measured: GI50

CN1C(=O)C2C3C=C4c5ccccc5N(c5ccccc5)C4(C2C1=O)[C@H]1C(=O)N(C)C(=O)[C@@H]31 (some centres not stated)
inactive: [1] > 100 µM | [2] > 100 µM | [3] > 100 µM | [4] > 100 µM | [5] > 100 µM | [6] > 100 µM | [7] > 100 µM | [8] > 100 µM | [9] > 100 µM | [10] > 100 µM | [11] > 100 µM | [12] > 100 µM | [13] > 100 µM | [14] > 100 µM

COc1ccc(-c2cc(O)c3cc4c(cc3n2)OCO4)c(OC)c1OC
inactive: [1] 40.4 µM | [2] > 100 µM | [4] 76.9 µM | [5] 82.8 µM | [6] 43.9 µM | [7] 24.4 µM | [8] 68.9 µM | [15] > 100 µM | [9] > 100 µM | [10] > 100 µM | [11] 70.3 µM | [12] > 100 µM | [16] > 100 µM | [14] > 100 µM | [17] 41.5 µM

CCOC(=O)N1C(c2ccccc2)C=CC(c2ccccc2)N1C(=O)OCC (configuration not stated)
inactive: [1] > 100 µM | [2] > 100 µM | [3] > 100 µM | [4] > 100 µM | [5] > 100 µM | [6] > 100 µM | [7] > 100 µM | [8] > 100 µM | [15] > 100 µM | [9] > 100 µM | [10] > 100 µM | [11] > 100 µM | [13] > 100 µM | [16] > 100 µM | [14] > 100 µM | [17] > 100 µM

CC(C)(C)c1ccnc(/N=C2\N/C(=N\c3cc(C(C)(C)C)ccn3)c3ccccc32)c1
inactive: [1] 24.8 µM | [2] 14.6 µM | [3] 23 µM | [4] 59.4 µM | [6] 41.3 µM | [7] 31.4 µM | [8] 41.8 µM | [15] 23.1 µM | [9] 17.9 µM | [10] 22.2 µM | [11] 22.6 µM | [12] > 100 µM | [13] > 100 µM | [16] 22.3 µM | [14] > 100 µM

[N-]=[N+]=NC(CBr)c1cn([C@H]2C[C@H](O)[C@@H](CO)O2)c(=O)[nH]c1=O (some centres not stated)
inactive: [1] > 100 µM | [2] > 100 µM | [4] > 100 µM | [5] > 100 µM | [6] > 100 µM | [7] > 100 µM | [8] > 100 µM | [15] > 100 µM | [9] > 100 µM | [10] > 100 µM | [11] > 100 µM | [12] > 100 µM | [13] > 100 µM | [16] > 100 µM | [14] > 100 µM | [17] > 100 µM

COc1ccc(C(=O)C(C(=O)C(=O)Nc2nc3ccc(OC)cc3s2)c2ccc(OC)cc2)cc1 (configuration not stated)
inactive: [1] > 100 µM | [3] 63.2 µM | [4] > 100 µM | [5] > 100 µM | [6] > 100 µM | [8] > 100 µM | [15] > 100 µM | [9] > 100 µM | [10] > 100 µM | [11] > 100 µM | [12] > 100 µM | [13] > 100 µM | [14] > 100 µM | [17] 55.2 µM

COc1ccc(OC(C)C(=O)O)c2c(=O)ccccc12 (configuration not stated)
inactive: [1] > 100 µM | [3] > 100 µM | [4] > 100 µM | [5] > 100 µM | [6] > 100 µM | [7] > 100 µM | [8] > 100 µM | [15] > 100 µM | [9] > 100 µM | [10] > 100 µM | [12] > 100 µM | [13] > 100 µM | [16] > 100 µM | [14] > 100 µM | [17] > 100 µM

c1ccc2cc3[s+]snc3cc2c1
inactive: [1] > 100 µM | [2] > 100 µM | [3] > 100 µM | [4] 89.7 µM | [6] > 100 µM | [7] > 100 µM | [8] > 100 µM | [15] > 100 µM | [9] > 100 µM | [10] > 100 µM | [12] > 100 µM | [13] > 100 µM | [16] > 100 µM | [14] > 100 µM | [17] 97.9 µM

CC(N)Cc1ccc(C(=O)Cl)cc1 (configuration not stated)
inactive: [1] > 100 µM | [2] > 100 µM | [3] > 100 µM | [4] > 100 µM | [5] > 100 µM | [6] > 100 µM | [8] > 100 µM | [15] > 100 µM | [9] > 100 µM | [16] > 100 µM | [14] > 100 µM | [17] > 100 µM
